Holding throughout (assay type): cell-based
The subject of one data set is Raw264.7 cells. As to the kind of experiment: Evaluation of cytotoxicity (intracellular toxicity). As to conditions: CBD alone (FIG. 1). On the procedure: For CBD and taurine, intracellular toxicity evaluation was performed on osteoclasts (Raw264.7 cells), which are inflammatory cells, and the results are shown in FIG. 1. […] The appropriate concentrations of CBD (10 uM) and Taurine (0.5 mM) were determined, and intracellular toxicity evaluation according to subsequent combined treatment was performed.

Data set [1] has as its system TRAP-positive cell formation in macrophages. As to the kind of experiment: Inhibition of TRAP-positive cell formation by RANKL during osteoclast differentiation. As to conditions: osteoclast differentiation (FIG. 3). As to the method: (§1) To confirm the inhibitory effect of CBD and taurine on bone loss caused by periodontitis, the degree of TRAP formation and bone loss by RANKL (receptor activator of nuclear factor-KB ligand) was analyzed through pit formation area analysis.
As a result of analyzing the degree of inhibition of TRAP-positive cell formation by RANKL during osteoclast differentiation, it was confirmed that the inhibition efficacy of TRAP-positive cell formation was very low when CBD or taurine was used alone, but the inhibition efficacy of TRAP-positive cell formation was very high when CBD and taurine were used in combination (FIG. 3).

Data set [2] deals with bone loss by RANKL in macrophages. As to the kind of experiment: Inhibition of bone loss by RANKL in macrophages (pit formation area analysis). As to conditions: pit formation area (FIG. 4). As to the method: as §1
To further confirm the bone loss inhibition efficacy of CBD and taurine, the degree of inhibition of bone loss by RANKL in macrophages was analyzed.

As for `C=C(C)[C@@H]1CCC(C)=C[C@H]1c1c(O)cc(CCCCC)cc1O` [CBD, Cannabidiol], the “concentration up to which there was no intracellular toxicity” value in the data set on Raw264.7 cells was not above 12 µM. Further, the “inhibition efficacy of TRAP-positive cell formation” value in data set [1] was “very low”. In addition, the “bone loss inhibition efficacy” value in data set [2] is reported as “almost none or very low”.

In the case of `NCCS(=O)(=O)O` [taurine], the “inhibition efficacy of TRAP-positive cell formation” value in data set [1] was “very low”. In addition, in data set [2], the “bone loss inhibition efficacy” value was “almost none or very low”.

(Values after patent US20260151406A1, “COMPOSITION FOR PREVENTING OR TREATING PERIODONTITIS COMPRISING CANNABIDIOL AND TAURINE” (MBP CO., LTD., priority 2022, published 2026).)
